Results: patent US20250333573A1, “METHOD FOR TEXTILE AND POLYESTER DECONSTRUCTION AND UPCYCLING TO BIOPLASTIC IN A HALOPHILE” (Battelle Memorial Institute, priority 2024, published 2025)

How the values were obtained:
[1] = system: WT Halomonas elongata; test: Growth of WT Halomonas elongata on subcritical water products and ethylene glycol (OD600); assay type: cell-based; conditions: 5 g/L ethylene glycol; minimal salts medium, 60 g/L NaCl
Experimental: This was prepared with minimal salts medium directly and used as a growth substrate for the WT Halomonas elongata strain.
The SCW product contained 4.1 g/L EG, and the final medium preparation contained ˜1.6 g/L EG.

[2] = system: Halomonas elongata DSMZ 2581; test: Growth of Halomonas elongata on lactate and crotonate as the carbon source (OD600); assay type: cell-based; conditions: 3 g/L crotonic acid alone; MM63 medium, 60 g/L NaCl, pH 8.0
Experimental: FIG. 30B: Growth of Halomonas elongata DSMZ 2581 in MM63 medium containing 3 g/L lactate, 3 g/L crotonate, and mixture of 3 g/L lactate and 3 g/L crotonate as indicated. MM63 medium contained 13.61 g/L KH·PO4, 4.21 g/L KOH, 1.98 (NH4)2SO4, 0.0011 g/L FeSO4—H2O 0.25 g/L MgSO4-7H2O, and 60 g/L NaCl set at pH=8.0. Points represent the average of three replicates and error bars are one standard deviation.
Media was prepared with MM63 minimal salts medium directly and used as a growth substrate for Halomonas elongata strain. MM63 minimal salts medium contains 13.61 g/L KH·PO4, 4.21 g/L KOH, 1.98 (NH4)2SO4, 0.0011 g/L FeSO4—H2O 0.25 g/L MgSO4-7H2O, 60 g/L NaCl. […] Assuming linearity in biomass to substrate loading, and assuming the major carbon source was crotonate and/or lactate, the increased optical density over time would indicate a high conversion of the substrates in the Halomonas strain.
Cell density was measured using a spectrophotometric assay detecting absorbance of each well/cuvette at 600 nm. The measurements were performed using a Thermo Scientific Genesys 150 spectrophotometer. A non-inoculated control was used to subtract background absorbance.

SMILES | final OD600 [1] | final optical density [2]
OCCO [ethylene glycol] | 3.16 | 
C/C=C/C(=O)O [crotonate, crotonic acid] |  | 6.0
